Data from patent US11840528B2 (Hoffmann-La Roche Inc., priority 2018, dated 2023).

Columns and labels:
[1] = molecular target: T1, h-GABA-A α5β3γ2 (Homo sapiens, UniProt P18507+P31644); assay: [3H]flumazenil competition binding assay, membranes of HEK293 cells expressing GABAA receptors; conditions: displacement of [3H]-Flumazenil 0.5 nM, HEK293 cells expressing human receptors, mean of two determinations; Table 1
Procedure: The affinity of compounds at GABAA receptor subtypes was measured by competition for [3H]flumazenil (85 Ci/mmol; Roche) binding to HEK293 cells expressing rat (stably transfected) or human (transiently transfected) receptors of composition α1β3γ2, α2β3γ2, α3β3γ2 and α5β3γ2.
Cell pellets were suspended in Krebs-tris buffer (4.8 mM KCl, 1.2 mM CaCl2), 1.2 mM MgCl2, 120 mM NaCl, 15 mM Tris; pH 7.5; binding assay buffer), homogenized by polytron for ca. 20 sec on ice and centrifuged for 60 min at 4° C. (50000 g; Sorvall, rotor: SM24=20000 rpm). The cell pellets were resuspended in Krebs-tris buffer and homogenized by polytron for ca. 15 sec on ice. Protein was measured (Bradford method, Bio-Rad) and aliquots of 1 mL were prepared and stored at −80° C.
Assays were incubated to equilibrium for 1 hour at 4° C. and harvested onto GF/C uni-filters (Packard) by filtration using a Packard harvester and washing with ice-cold wash buffer (50 mM Tris; pH 7.5). After drying, filter-retained radioactivity was detected by liquid scintillation counting. Ki values were calculated using Excel-Fit (Microsoft) and are the means of two determinations.

[2] = molecular target: T1, h-GABA-A α5β3γ2; assay: Two-electrode voltage clamp electrophysiology in Xenopus laevis oocytes expressing GABAA receptors, modulation of GABA EC20 current; format: cell-based; parameters: host or cells: Xenopus laevis oocytes micro-injected with RNA transcripts of the subunits; conditions: Table 1; for Efficacy (GABA) %: % modulation of GABA EC20 = 100*(Fold increase-1); for Fold increase h-GABA-A α5β3γ2 oocyte: test compound at approx. 30 fold its Ki, GABA at EC20
Procedure: Xenopus laevis oocytes at maturation stages V-VI were used for the expression of cloned mRNA encoding GABAA receptor subunits. Oocytes ready for RNA micro-injection were bought from Ecocyte, Castrop-Rauxel, Germany and stored in modified Barth's medium (composition in mM: NaCl 88, KCl 1, NaHCO32.4, HEPES 10, MgSO4 0.82, CaNO3 0.33, CaCl2 0.33, pH=7.5) at 20° C. until the experiment.
Oocytes were plated in 96-well plates to be used in an automated instrument (Robo-ocyte, MultiChannelSystems, Reutlingen, Germany) for microinjection and electrophysiological recordings. Approximately 50 nl of an aqueous solution containing the RNA transcripts for the subunits of the desired GABAA receptor was injected into each oocyte. RNA concentrations ranged between 0.3 and 16 ng/μl/subunit and were adjusted in pilot experiments to obtain GABA responses of a suitable size and a maximal effect of the reference modulator, Beta-CCM (β-CCM), a betacarboline negative allosteric modulator (NAM) at the GABAA receptor benzodiazepine (BZD) binding site or Midazolam, a benzodiazepine positive allosteric modulator (PAM) at the GABAA receptor benzodiazepine (BZD) binding site. The concentration of the γ2 subunit encoding RNA usually was 5- to 10-fold higher than the RNAs encoding the other subunits. Oocytes were kept in modified Barth's medium (composition in mM: NaCl 88, KCl 1, NaHCO3 4, HEPES 10, MgSO4 0.82, CaNO3 0.33, CaCl2) 0.33, pH=7.5) at 20° C. until the experiment.
Electrophysiological experiments were performed on days 3 to 5 after the micro-injection of mRNA. During the experiment the oocytes were constantly superfused by a solution containing (in mM) NaCl 90, KCl 1, HEPES 5, MgCl2 1, CaCl2) 1 (pH 7.4). Oocytes were impaled by two glass microelectrodes (resistance: 0.4 MΩ) which were filled with a solution containing KCl 1M+K-acetate 1.5 M and voltage-clamped to −80 mV. The recordings were performed at room temperature using the Roboocyte two-electrode voltage clamp system (Multichannelsystem). After an initial equilibration period of 1.5 min GABA was added for 1.5 min at a concentration evoking approximately 20% of a maximal current response (EC20). After another rest interval of 2.5 min GABA was again added evoking a response of similar amplitude and shape. 0.5 min after the onset of this second GABA application the test compound, at a concentration corresponding to approximatively 30 fold its Ki, was added while GABA was still present. Current traces were recorded at a digitization rate of 10 Hz during and shortly before and after the GABA application.
Each compound and concentration was tested on at least 3 oocytes. Different oocytes were used for different compound concentrations. β-CCM, a negative allosteric modulator, or Midazolam, a positive allosteric modulators, were tested on a few (3-6) oocytes on each 96-well plate for a positive control at a maximally effective. β-CCM inhibited the GABA-evoked current by approximatively 50% (Fold increase ˜0.5), while Midazolam potentiated the GABA-induced current by approximatively 150% (Fold increase ˜2.5).
For the analysis, the digitized current traces of the first and second GABA response were superimposed and, if necessary, rescaled to equal maximal amplitudes. The ratio between the two responses during the time interval of test compound application was calculated point by point. The extremum of the resulting “ratio trace” was taken as the efficacy (“Fold increase”) of the compound expressed as “% modulation of GABA EC20” (100*(Fold increase-1)).

| Compound | Ki [1] [nM] | Efficacy (GABA) % [2] [%] | Fold increase h-GABA-A α5β3γ2 oocyte [2] |
| --- | --- | --- | --- |
| Cc1ccc(-c2noc(C)c2Cn2ncc(N3CC4(CCC(C)CO4)C3)cc2=O)nn1 (single isomer, unassigned) [Example 313] | 7.9 | 103 | 2.03 |
| Cc1ccc(-c2noc(C)c2Cn2ncc(N3CC4(CC(C)CCO4)C3)cc2=O)nn1 (single isomer, unassigned) [Example 317] | 4.9 | 68 | 1.68 |
| Cc1ccc(-c2noc(C)c2Cn2ncc(N3CC4(CC(C)CCO4)C3)cc2=O)nn1 (single isomer, unassigned) [Example 318] | 5.6 | 111 | 2.11 |
| Cc1ccc(-c2noc(C)c2Cn2ncc(N3CC4(CCC(F)CO4)C3)cc2=O)nn1 (single isomer, unassigned) [Example 319] | 1 | 91 | 1.91 |
| Cc1ccc(-c2noc(C)c2Cn2ncc(N3CC4(CCC(C(F)(F)F)CO4)C3)cc2=O)nn1 (single isomer, unassigned) [Example 320] | 24.8 | 226 | 3.26 |
| Cc1ccc(-c2noc(C)c2Cn2ncc(N3CC4(CCC(C(F)(F)F)CO4)C3)cc2=O)nn1 (single isomer, unassigned) [Example 321] | 6.3 | 129 | 2.29 |
| Cc1onc(-c2ccc(Cl)nc2)c1Cn1ncc(N2CC3(CCC(C(F)(F)F)CO3)C2)cc1=O (single isomer, unassigned) [Example 323] | 43.1 | 76 | 1.76 |
| CCc1onc(-c2ccc(C)nn2)c1Cn1ncc(N2CC3(CCC(F)CO3)C2)cc1=O (single isomer, unassigned) [Example 325] | 3.2 | 178 | 2.78 |
| Cc1ccc(-c2noc(C)c2Cn2ncc(N3CCC4(CC3)CC(F)CCO4)cc2=O)nn1 (single isomer, unassigned) [Example 326] | 1.9 | 164 | 2.64 |
| Cc1ccc(-c2noc(C)c2Cn2ncc(N3CCC4(CC3)CC(F)CCO4)cc2=O)nn1 (single isomer, unassigned) [Example 327] | 3.6 | 122 | 2.22 |
| Cc1ccc(-c2noc(CF)c2Cn2ncc(N3CC4(CCC(F)CO4)C3)cc2=O)nn1 (single isomer, unassigned) [Example 329] | 58.7 | 164 | 2.64 |
| Cc1onc(-c2ccc(Cl)nc2)c1Cn1ncc(N2CCC3(CC2)CC(F)CCO3)cc1=O (single isomer, unassigned) [Example 330] | 48.8 | 159 | 2.59 |
| Cc1onc(-c2ccc(Cl)nc2)c1Cn1ncc(N2CCC3(CC2)CC(F)CCO3)cc1=O (single isomer, unassigned) [Example 331] | 17.6 | 159 | 2.59 |
| Cc1onc(-c2ncc(C(F)(F)F)cn2)c1Cn1ncc(N2CC3(CCC(F)CO3)C2)cc1=O (single isomer, unassigned) [Example 332] | 2.6 | 65 | 1.65 |
| CC(=O)N(C)[C@H]1CCN(c2cnn(Cc3c(-c4ccc(C)nc4)noc3C)c(=O)c2)C1 [Example 1, N-methyl-N-[(3S)-1-[1-[[5-methyl-3-(6-methyl-3-pyridyl)isoxazol-4-yl]methyl]-6-oxo-pyridazin-4-yl]pyrrolidin-3-yl]acetamide] | 10.2 | 63 | 1.63 |
| CC(=O)N(C)[C@@H]1CCN(c2cnn(Cc3c(-c4ccc(C)nc4)noc3C)c(=O)c2)C1 [Example 2, N-methyl-N-[(3R)-1-[1-[[5-methyl-3-(6-methyl-3-pyridyl)isoxazol-4-yl]methyl]-6-oxo-pyridazin-4-yl]pyrrolidin-3-yl]acetamide] | 26.2 | 155 | 2.55 |
| Cc1ccc(-c2noc(C)c2Cn2ncc(N3CC[C@@H](O)C3)cc2=O)cn1 [Example 3, 5-[(3R)-3-hydroxypyrrolidin-1-yl]-2-[[5-methyl-3-(6-methyl-3-pyridyl)isoxazol-4-yl]methyl]pyridazin-3-one] | 10.6 | 110 | 2.1 |
| Cc1ccc(-c2noc(C)c2Cn2ncc(N3CC[C@H](O)C3)cc2=O)cn1 [Example 4, 5-[(3S)-3-hydroxypyrrolidin-1-yl]-2-[[5-methyl-3-(6-methyl-3-pyridyl)isoxazol-4-yl]methyl]pyridazin-3-one] | 8.6 | 145 | 2.45 |
| Cc1ccc(-c2noc(C)c2Cn2ncc(N3CCC(O)CC3)cc2=O)cn1 [Example 5, 5-(4-hydroxy-1-piperidyl)-2-[[5-methyl-3-(6-methyl-3-pyridyl)isoxazol-4-yl]methyl]pyridazin-3-one] | 1.6 | 155 | 2.55 |
| Cc1ccc(-c2noc(C)c2Cn2ncc(N3CCOC(C)(C)C3)cc2=O)cn1 [Example 6, 5-(2,2-dimethylmorpholin-4-yl)-2-((5-methyl-3-(6-methylpyridin-3-yl)-1,2-oxazol-4-yl)methyl)pyridazin-3-one] | 0.6 | 145 | 2.45 |
